In US20230364112A1, “Use of Antcin H and Its Derivatives for Treating Central Nervous System Diseases” (ALPS BIOTECH CO., LTD., priority 2020, published 2023):

What was measured:
NLRP3 = NLRP3 immunofluorescence staining in striatum of R6/2 mice; assay type: in vivo; conditions: 10 mg/kg oral gavage daily, age 7 to 12 weeks, vs vehicle-treated R6/2 mice
Procedure: (§1) FIG. 4A: The numbers of activated microglia in the striatum were identified by lba1 staining (green color), and the numbers of NLRP3 positive cells in the striatum were identified by NLRP3 staining (red color). Nuclei were stained with Hoechst (blue color).
(§2) The method was according to the previous report. In brief, brain sections were incubated overnight with anti-lba-I polyclonal antibody (1:500), anti-NeuN polyclonal antibody (1:500), anti-NLRP3 monoclonal antibody (1:200) or anti-EM48 monoclonal antibody (1:500) in PBS containing 5% normal goat serum at 4° C. and then incubated with the corresponding secondary antibody for 2 h at room temperature. Nuclei were stained with Hoechst 33258. Slides were mounted and analyzed with a laser confocal microscope.
(§3) HD commonly associated with inflammation in nervous system and activated microglia. […] FIG. 4 show Antcin H reduced NLRP3 expression in microglia of R6/2 mice. R6/2 mice or WT mice were treated with AH (10 mg/kg of body weight) or vehicle by oral gavage daily starting from the age of 7 weeks to the age of 12 weeks. WT-Vehicle: n=6; WT-AH: n=6; R6/2-vehicle: n=6; R6/2-AH: n=6. The data are presented as the mean±SEM. Label “a” in chart means p<0.05, between WT and R6/2 mice. Label “b” in chart means p<0.05 vs. vehicle-treated R6/2 mice.

activated microglia = assay: lba-1 immunofluorescence staining for activated microglia in striatum of R6/2 mice; assay type: in vivo; conditions: 10 mg/kg oral gavage daily, age 7 to 12 weeks, vs vehicle-treated R6/2 mice
Procedure: as §1, §2, §3

mutant huntingtin (mHtt) = assay: mHtt aggregation in striatum of R6/2 mice (confocal microscope, filter retardation assay); assay type: in vivo; conditions: 10 mg/kg oral gavage daily, age 7 to 12 weeks, confocal intensity and filter retardation assay
Procedure: (§4) FIG. 3A: The numbers of neurons (identified by the expression of NeuN; green color) and the level of mutant huntingtin (red color) in the striatum of the mice were analyzed by confocal microscope. Nuclei were stained with Hoechst (blue color).
Brain tissues will be suspended and homogenized in ice-cold RIPA buffer (50 mM Tris-HCl, 0.25% sodium deoxycholate, 1% Triton X-100, 150 mM NaCl, 1 mM phenylmethylsulfonyl fluoride, 1 mM Na3VO4, 0.5 mg/mL aprotinin, 0.1 mM leupeptin, and 4 mM pepstatin), mixed with 2% SDS, and applied to OE66 membrane filters ([…]; Whatman Schleicher and Schuell, Middlesex, UK) through a slot-blot manifold (Bio-Rad, Irvine, CA, USA). The blots will be blocked with 5% skim milk in PBS and incubated overnight with an anti-EM48 antibody (1:500; Millipore Bioscience Research Reagents, Temecula, CA, USA) at 4° C., followed by incubation with the corresponding secondary antibody for 1 h at RT. The immunoreactive bands will be detected by ECL (Pierce, Rockford, IL, USA) and recorded using Kodak XAR-5 film.
The method was according to the previous report. […] Slides were mounted and analyzed with a laser confocal microscope. […]

STHdh^Q109 cells [1] = assay: Cell viability analysis (CCK-8 assay) in a cell model of HD; assay type: cell-based, mice; conditions: 24 h, vs vehicle-treated cells
From the text: (§5) Conditionally immortalized wild-type STHdh^Q7 striatal neuronal progenitor cells expressing endogenous normal htt (referred to as wild-type striatal cells), and homozygous mutant STHdh^Q109 striatal neuronal progenitor cells from homozygous STHdh^Q109 knock-in mice expressing mutant htt with 109 glutamines (referred to as mutant striatal cells). STHdh^Q7 and STHdh^Q109 cells were generous gifts from Dr. Elena Cattaneo and Marta Valenza (Department of pharmacological sciences and center for stem cell research, University of Milano, Italy). These cells were maintained in an incubation chamber at 33° C. in Dulbecco's modified Eagle's medium supplemented with 10% fetal bovine serum.
STHdh^Q7 and STHdh^Q109 cells were treated with 5 or 10 μM Antcin H or vehicle (DMSO) for 24 h. STHdh^Q7 and STHdh^Q109 cells viability was quantified by the CCK-8 assay. The survival rate of the indicated cells was normalized to those survival rate of vehicle-treated STHdh^Q7 cells.
To investigate the neuroprotective potential of Antcin H in CNS disease, the present example used striatal cell line as an in vitro model of Huntington's disease. STHdh^Q109 cells carry the polyQ-expanded mouse gene Htt, which encodes 109 CAG repeats in the Htt gene. Compared with STHdh^Q109 cells, the control cell line (STHdh^Q7) only carry 7 copies of the CAG repeat. […]

R6/2 mice [2] = assay: Neuronal death in R6/2 mice brain (NeuN immunofluorescence staining, Western blotting); assay type: in vivo; conditions: 10 mg/kg oral gavage daily
Procedure: as §4, §2
The present example further investigates the effect of Antcin H in the neuronal death of R6/2 mice brains by immunofluorescence staining. […] R6/2 mice or WT mice were treated with AH (10 mg/kg of body weight) or vehicle by oral gavage daily starting from the age of 7 weeks to the age of 12 weeks. WT-Vehicle: n=6; WT-AH: n=6; R6/2-vehicle: n=6; R6/2-AH: n=6. The data are presented as the mean±SEM. Label “a” in chart means p<0.05, between WT and R6/2 mice. Label “b” in chart means p<0.05 vs. vehicle-treated R6/2 mice.

BV2 microglia = assay: iNOS and NLRP3 Western blotting in LPS and ATP activated BV2 microglia; assay type: cell-based; conditions: 1 μg/ml LPS 5 h, 1 or 5 μM Antcin H 0.5 h, 1 mM ATP 24 h
Procedure: (§6) BV2 microglia were treated with or without 1 μg/ml LPS for 5 h, followed by treated with or without 1 or 5 μM Antcin H for 0.5 h. Cells were then activated by 1 mM ATP for 24 h. The IL-1β levels in the supernatants were measured by ELISA, and the levels of iNOS and NLRP3 in the cell lysates were measured by Western blotting. J774A.1 macrophages were treated with or without 1 μg/ml LPS for 5 h, followed by treated with or without Antcin H for 0.5 h. Cells were then activated by 5 mM ATP for 0.5 h. The IL-1β levels in the supernatants were measured by ELISA.
(§7) Microglia are macrophage-like immune cells of the central nervous system. […] (Subhramanyam et al., 2019). In addition, overexpressed IL-1β, the end-product of the NLRP3 inflammasome, plays important roles in the development of many diseases including neurodegenerative diseases (Siew et al., 2019). NLRP3 inflammasome composed of NLRP3, ASC and caspase-1 and controls the maturation and release of IL-1β. NLRP3 inflammasome can be activated by medical relevant stimuli such as ATP from damage tissues and amyloid-β of Alzheimer's disease (Guo et al., 2015). […] BV2 microglia were treated with or without 1 μg/ml LPS for 5 h, followed by treated with or without 1 or 5 μM Antcin H for 0.5 h. Cells were then activated by 1 mM ATP for 24 h. The data are presented as the mean±SEM from three independent experiments. […]

R6/2 mice [3] = assay: Disease progression of R6/2 transgenic mouse model of HD (body weight, rotarod, survival, clasping); assay type: in vivo; conditions: 10 mg/kg oral gavage daily
Procedure: R6/2 mice or wild-type mice were treated with Antcin H (10 mg/kg of body weight) or vehicle by oral gavage daily starting from the age of 7 weeks to the age of 12 weeks. Mice were tested on a Rotarod apparatus three times a week. Motor coordination was assessed using a rotarod apparatus assay (UGO BASILE, Comerio, Italy) at a constant speed (12 rpm) over a period of 2 min. The body weight and the lifespan were monitored weekly.
To investigate the therapeutic potential of Antcin H in the pathogenesis of Huntington's disease, R6/2 mice were used as an animal model of HD. R6/2 mice or wild-type mice were treated with Antcin H (10 mg/kg of body weight) or vehicle by oral gavage daily starting from the age of 7 weeks to the age of 12 weeks. […] WT-Vehicle: n=10; WT-AH: n=10; R6/2-vehicle: n=8; R6/2-AH: n=10. The data are presented as the mean±SEM. Label “a” in chart means p<0.05, between WT and R6/2 mice. Label “b” in chart means p<0.05 vs. R6/2-vehicle.

[4] = tested on: NLRP3 inflammasome in J774A.1 macrophages; assay: IL-1β ELISA in LPS-primed, ATP-activated J774A.1 macrophages; assay type: cell-based; conditions: 1 μg/ml LPS 5 h, Antcin H 0.5 h, 5 mM ATP 0.5 h
Procedure: (§8) FIG. 6A: J774A.1 macrophages were treated with or without 1 μg/ml LPS for 5 h, followed by treated with or without Antcin H for 0.5 h. Cells were then activated by 5 mM ATP for 0.5 h; FIG. 6B: J774A.1 macrophages were treated with or without 1 μg/ml LPS for 5 h, followed by treated with or without 50 μM Antcin H for 0.5 h. Cells were then activated by 5 mM ATP for 0-60 min.
as §6

STHdh^Q109 cells [5] = assay: Intracellular ROS analysis (CM-H2DCFDA) in a cell model of HD; assay type: cell-based, mice; conditions: 5 or 10 μM Antcin H, H2DCFDA staining
From the text: as §5
STHdh^Q7 and STHdh^Q109 cells were treated with 5 or 10 μM Antcin H or vehicle (DMSO) in the presence of 10 μM intracellular ROS indicator fluorescent probe CM-H2DCFDA (Molecular Probes, Inc., Eugene, Oregon, USA) for 1 h. Intracellular ROS (Reactive Oxygen Species) levels were measured by detecting the fluorescence intensity (Excitation/Emission: 488 nm/510 nm) using a fluorescence plate reader (Fluoroskan Ascent; Thermo Electron Corporation, Woburn, MA, USA). J774A.1 macrophages were treated with or without 1 μg/ml LPS for 5 h, followed by treated with or without 50 μM Antcin H for 0.5 h. […] The levels of intracellular ROS were measured by CM-H2DCFDA staining and detected by a fluorescence plate reader. […]

J774A.1 macrophages = assay: ATP-induced intracellular ROS (CM-H2DCFDA) in LPS-primed J774A.1 macrophages; assay type: cell-based; conditions: 1 μg/ml LPS 5 h, 50 μM Antcin H 0.5 h, 5 mM ATP 0-60 min
Procedure: as §8
STHdh^Q7 and STHdh^Q109 cells were treated with 5 or 10 μM Antcin H or vehicle (DMSO) in the presence of 10 μM intracellular ROS indicator fluorescent probe CM-H2DCFDA (Molecular Probes, Inc., Eugene, Oregon, USA) for 1 h. Intracellular ROS (Reactive Oxygen Species) levels were measured by detecting the fluorescence intensity (Excitation/Emission: 488 nm/510 nm) using a fluorescence plate reader (Fluoroskan Ascent; Thermo Electron Corporation, Woburn, MA, USA). J774A.1 macrophages were treated with or without 1 μg/ml LPS for 5 h, followed by treated with or without 50 μM Antcin H for 0.5 h. […] The levels of intracellular ROS were measured by CM-H2DCFDA staining and detected by a fluorescence plate reader.
In addition, ROS is one of the crucial elements for NLRP3 inflammasome activation (Tschopp and Schroder, 2010). […] The levels of intracellular ROS were measured by CM-H2DCFDA staining and detected at an excitation wavelength of 488 nm and an emission wavelength of 510 nm on a […]. […]

[6] = tested on: NLRP3 inflammasome in BV2 microglia; assay: IL-1β ELISA in LPS-primed, ATP-activated BV2 microglia; assay type: cell-based; conditions: 1 μg/ml LPS 5 h, 1 or 5 μM Antcin H 0.5 h, 1 mM ATP 24 h
Procedure: as §6, §7

[7] = age 7 to 12 weeks, vs vehicle-treated R6/2 mice

C=C(CCC(=C)[C@H]1CCC2C3=C(C(=O)[C@H](O)[C@@]21C)[C@@]1(C)CC[C@@H](O)[C@@H](C)C1CC3=O)C(C)C(=O)O (some centres unmarked) [Antcin H]
number of NLRP3 positive cells in striatum (NLRP3): significantly reduced the number of NLRP3 positive cells | number of lba-1 positive cells in striatum (activated microglia): decreased | mutant huntingtin aggregation in the striatum (mutant huntingtin (mHtt)): reduced the mutant huntingtin aggregation | cell survival ratio (CCK-8 assay) (STHdh^Q109 cells [1]; 5 μM Antcin H): higher survival ratio then vehicle-treated cells | cell survival ratio (CCK-8 assay) (STHdh^Q109 cells [1]; 10 μM Antcin H): higher survival ratio then vehicle-treated cells | neuronal cells number in the brain (NeuN, confocal microscope) (R6/2 mice [2]; [7]): significant increased | NeuN protein expression in the brain (Western blotting) (R6/2 mice [2]; brain lysates at age of 12 weeks): increasing expression of NeuN protein | expression level of NLRP3, Western blotting (BV2 microglia): reduced the expression levels | expression level of inducible nitric oxide synthase (iNOS), Western blotting (BV2 microglia): reduced the expression levels | rotarod performance (latency to fall) (R6/2 mice [3]; age 7 to 12 weeks, 12 rpm, 2 min): increased latency to fall | body weight (R6/2 mice [3]; [7]): higher weekly weight gain | survival rate (R6/2 mice [3]; at 12 weeks of age): 100% | clasping score (R6/2 mice [3]; at 12 weeks of age, vs vehicle-treated R6/2 mice): lower clasping score | ATP-induced IL-1β secretion (IL-1β levels in the supernatants, ELISA) [4]: inhibited by Antcin H (FIG. 6A) in a dose-dependent manner | intracellular ROS levels (STHdh^Q109 cells [5]): significantly reduced the intracellular ROS levels | ATP-induced ROS production (J774A.1 macrophages): significantly reduced ATP-induced ROS production | ATP-induced IL-1β expression (IL-1β levels in the supernatants, ELISA) [6]: reduced ATP-induced IL-1β expression
